# Reference: the supplement of paper PMC10307832
# Tests used:
# Assay in all cases: relative viability (nuclei count vs DMSO), 5 days (fraction); higher = more cells survive
# [1] = compound: CC(C)C[C@@H](C(=O)N[C@H](C(=O)OC1CCCC1)c1ccccc1)[C@H](O)C(=O)NO [Tosedostat] + CC(=O)Nc1cccc(-n2c(=O)n(C3CC3)c(=O)c3c(Nc4ccc(I)cc4F)n(C)c(=O)c(C)c32)c1 [Trametinib] (partner 0.02 µM)
# Method in brief: (§1)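 Values are medians from duplicate plates. Each reflects relative viability, defined as the nuclei count of treated wells over that of vehicle wells. Lung cancer cell lines in 1536-well plates were pin-tool dosed one day after seeding with one drug alone or with a fixed anchor-drug dose plus five library-drug doses (not always all listed) in √10 steps, then fixed, stained and imaged at 4× after 5 days.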
# [2] = compound: CC(C)C[C@@H](C(=O)N[C@H](C(=O)OC1CCCC1)c1ccccc1)[C@H](O)C(=O)NO [Tosedostat] + CS(=O)(=O)N1CCN(Cc2cc3nc(-c4cccc5[nH]ncc45)nc(N4CCOCC4)c3s2)CC1 [Pictilisib] (partner 1 µM)
# Method in brief: as §1
# [3] = compound: CC1=NN=C(O1)C2=NN=C(C=C2)N3CCC(CC3)OC4=C(C=CC(=C4)F)Cl + N=C(N)NC(=N)NCCc1ccccc1 [Phenformin] (partner 250 µM)
# Method in brief: as §1
# [4] = compound: CC(C)C[C@@H](C(=O)N[C@H](C(=O)OC1CCCC1)c1ccccc1)[C@H](O)C(=O)NO [Tosedostat] + NC(=O)Nc1cc(-c2cccc(F)c2)sc1C(=O)N[C@H]1CCCNC1 [AZD7762] (partner 0.2 µM)
# Method in brief: as §1
Cell Line,relative viability ([1]; first compound 0.02 µM),relative viability ([1]; first compound 0.06325 µM),relative viability ([1]; first compound 0.2 µM),relative viability ([1]; first compound 0.6325 µM),relative viability ([1]; first compound 2 µM),relative viability ([2]; first compound 0.02 µM),relative viability ([2]; first compound 0.06325 µM),relative viability ([2]; first compound 0.2 µM),relative viability ([2]; first compound 0.6325 µM),relative viability ([2]; first compound 2 µM),relative viability ([3]; first compound 0.253 µM),relative viability ([3]; first compound 0.8 µM),relative viability ([3]; first compound 2.53 µM),relative viability ([3]; first compound 8 µM),relative viability ([4]; first compound 0.02 µM),relative viability ([4]; first compound 0.06325 µM),relative viability ([4]; first compound 0.2 µM),relative viability ([4]; first compound 0.6325 µM),relative viability ([4]; first compound 2 µM)
NCI-H2009,0.248,0.325,0.321,0.293,0.276,1.14,0.841,0.682,0.732,0.524,0.456,0.418,0.424,0.378,,,,,
NCI-H522,0.716,0.796,0.752,0.895,0.78,,,,,,0.679,0.632,0.855,0.526,0.901,0.907,0.953,0.827,0.738
NCI-H1703,,,,,,0.229,0.253,0.268,0.222,0.245,,,,,0.122,0.133,0.138,0.122,0.0985
NCI-H1648,0.417,0.447,0.476,0.477,0.336,,,,,,,,,,0.678,0.735,0.768,0.538,0.509
SK-LU-1,0.648,0.529,0.597,0.447,0.511,0.688,0.728,0.505,0.604,0.485,0.584,,0.534,0.475,,,,,
SK-MES-1,0.556,0.536,0.625,0.776,0.782,0.382,0.317,0.381,0.315,0.311,0.58,0.532,0.475,0.414,,,,,
NCI-H2342,0.808,0.797,0.93,0.903,0.919,,,,,,0.474,0.503,0.492,0.362,0.512,0.599,0.446,0.41,0.432
SW 900,0.696,0.754,0.777,0.639,0.609,,,,,,,,0.827,0.562,0.56,0.603,0.644,0.661,0.556
A549,,,,,,0.606,0.513,0.495,0.469,0.521,0.158,0.0878,0.14,0.147,,,,,
NCI-H661,0.688,0.596,0.579,0.613,0.637,0.399,0.444,0.366,0.432,0.301,0.282,0.308,0.244,0.277,,,,,
ABC-1,,,,,,1,0.622,0.616,0.722,0.535,0.197,0.224,0.291,0.276,1.2,,0.755,0.822,0.732
